Results from PubChem BioAssay (NCI).
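Growth conditions: 96-well plates. Treatment: test compound, 48 hours, 5 concentrations. Analysis: linear interpolation between bracketing concentrations; unreached endpoints set to highest concentration. At the GI50, growth is halved. The concentration for full growth arrest is given as TGI.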 Where a SMILES comes first, the peptide text is derived from it. The star is where a group is joined. OBn = c1ccc(CO*)cc1

Experiments:
Assay in all cases: NCI-60 cell line screen, 48 h
[1] = test system: 786-0 renal
[2] = test system: A498 renal
[3] = test system: A549 NSCLC
[4] = test system: ACHN renal
[5] = test system: CAKI-1 renal
[6] = test system: CCRF-CEM leukemia
[7] = test system: COLO 205 colon
[8] = test system: DU-145 prostate
[9] = test system: EKVX NSCLC
[10] = test system: HCC-2998 colon
[11] = test system: HCT-116 colon
[12] = test system: HCT-15 colon
[13] = test system: HL-60(TB) leukemia
[14] = test system: HOP-62 NSCLC
[15] = test system: HOP-92 NSCLC
[16] = test system: HT29 colon
[17] = test system: IGROV1 ovarian
[18] = test system: K-562 leukemia
[19] = test system: KM12 colon
[20] = test system: LOX IMVI melanoma
[21] = test system: M14 melanoma
[22] = test system: MALME-3M melanoma
[23] = test system: MCF7 breast
[24] = test system: MDA-MB-435
[25] = test system: MDA-N
[26] = test system: MOLT-4 leukemia
[27] = test system: NCI-H226 lung
[28] = test system: NCI-H23 lung
[29] = test system: NCI-H522 lung
[30] = test system: NCI/ADR-RES ovarian
[31] = test system: OVCAR-3 ovarian
[32] = test system: OVCAR-4 ovarian
[33] = test system: OVCAR-8 ovarian
[34] = test system: PC-3 prostate
[35] = test system: RPMI-8226 leukemia
[36] = test system: RXF 393 renal
[37] = test system: SF-295 CNS
[38] = test system: SF-539 CNS
[39] = test system: SK-MEL-2 melanoma
[40] = test system: SK-MEL-28 melanoma
[41] = test system: SK-MEL-5 melanoma
[42] = test system: SK-OV-3 ovarian
[43] = test system: SN12C renal
[44] = test system: SNB-19 CNS
[45] = test system: SNB-75 CNS
[46] = test system: SW-620 colon
[47] = test system: T-47D breast
[48] = test system: TK-10 renal
[49] = test system: U251 CNS
[50] = test system: UACC-257 melanoma
[51] = test system: UACC-62 melanoma
[52] = test system: UO-31 renal
[53] = test system: NCI-H460 lung
[54] = test system: SF-268 CNS
[55] = test system: MDA-MB-231 breast
[56] = test system: SR leukemia

CNc1ncnc2c1nnn2C
TGI [1]: > 100 µM | TGI [2]: > 100 µM | TGI [3]: > 100 µM | TGI [4]: > 100 µM | TGI [5]: > 100 µM | TGI [6]: > 100 µM | TGI [7]: > 100 µM | TGI [8]: > 100 µM | TGI [9]: > 100 µM | TGI [10]: > 100 µM | TGI [11]: > 100 µM | TGI [12]: > 100 µM | TGI [13]: > 100 µM | TGI [14]: > 100 µM | TGI [15]: > 100 µM | TGI [16]: > 100 µM | TGI [17]: > 100 µM | TGI [18]: > 100 µM | TGI [19]: > 100 µM | TGI [20]: > 100 µM | TGI [21]: > 100 µM | TGI [22]: > 100 µM | TGI [23]: > 100 µM | TGI [24]: > 100 µM | TGI [25]: > 100 µM | TGI [26]: > 100 µM | TGI [27]: > 100 µM | TGI [28]: > 100 µM | TGI [29]: > 100 µM | TGI [30]: > 100 µM | TGI [31]: > 100 µM | TGI [32]: > 100 µM | TGI [33]: > 100 µM | TGI [34]: > 100 µM | TGI [35]: > 100 µM | TGI [36]: > 100 µM | TGI [37]: > 100 µM | TGI [38]: > 100 µM | TGI [39]: > 100 µM | TGI [40]: > 100 µM | TGI [41]: > 100 µM | TGI [42]: > 100 µM | TGI [43]: > 100 µM | TGI [44]: > 100 µM | TGI [45]: > 100 µM | TGI [46]: > 100 µM | TGI [47]: > 100 µM | TGI [48]: > 100 µM | TGI [49]: > 100 µM | TGI [50]: > 100 µM | TGI [51]: > 100 µM | TGI [52]: > 100 µM

CC(=O)NC(C(=O)N1CCCC1C(=O)OCc1ccccc1)C(C)C (stereo not drawn) (Ac-Val-Pro-OBn; configuration not given here)
GI50 [6]: 52 mg/L | GI50 [25]: 80.7 mg/L

O=C(O)CC(NC(=O)CP(=O)(O)O)C(=O)O.[NH-]C1CCCCC1[NH-].[Pt+2] (configuration not stated)
GI50 [1]: 52 µM | GI50 [3]: 56.4 µM | GI50 [4]: 84.7 µM | GI50 [5]: 96.2 µM | GI50 [6]: 18 µM | GI50 [7]: 51 µM | GI50 [11]: 30.4 µM | GI50 [12]: 67.9 µM | GI50 [13]: 40.2 µM | GI50 [16]: 56.3 µM | GI50 [18]: 5.38 µM | GI50 [19]: 84.1 µM | GI50 [21]: 77.2 µM | GI50 [23]: 75.8 µM | GI50 [24]: 75.9 µM | GI50 [25]: 70.5 µM | GI50 [26]: 0.675 µM | TGI [26]: 31.4 µM | GI50 [53]: 42.2 µM | GI50 [29]: 60.8 µM | GI50 [31]: 88.3 µM | GI50 [33]: 74.4 µM | GI50 [35]: 5.93 µM | GI50 [54]: 78.8 µM | GI50 [37]: 56.3 µM | GI50 [41]: 70.2 µM | GI50 [43]: 96.6 µM | GI50 [46]: 19.6 µM | GI50 [47]: 94.7 µM | GI50 [52]: 41.3 µM

Clc1ccc(/C=N/Nc2nnc3c4ccccc4c4ncccc4c3n2)cc1
TGI [1]: > 10 µM | TGI [3]: > 10 µM | TGI [5]: > 10 µM | TGI [7]: > 10 µM | TGI [8]: > 10 µM | TGI [9]: > 10 µM | TGI [10]: > 10 µM | TGI [12]: > 10 µM | TGI [13]: > 10 µM | TGI [14]: > 10 µM | TGI [16]: > 10 µM | TGI [17]: > 10 µM | TGI [18]: > 10 µM | TGI [19]: > 10 µM | TGI [21]: > 10 µM | TGI [22]: > 10 µM | TGI [23]: > 10 µM | TGI [55]: > 10 µM | TGI [25]: > 10 µM | TGI [26]: > 10 µM | TGI [28]: > 10 µM | TGI [33]: > 10 µM | TGI [34]: > 10 µM | TGI [35]: > 10 µM | TGI [36]: > 10 µM | TGI [54]: > 10 µM | TGI [37]: > 10 µM | TGI [40]: > 10 µM | TGI [41]: > 10 µM | TGI [42]: > 10 µM | TGI [43]: > 10 µM | TGI [45]: > 10 µM | TGI [56]: > 10 µM | TGI [46]: > 10 µM | TGI [47]: > 10 µM | TGI [48]: > 10 µM | TGI [50]: > 10 µM | TGI [51]: > 10 µM
